Biological target: T1, porcine pancreatic elastase (PPE) (Sus scrofa, UniProt P00772)
T1 construct: gene CELA1; commercial native enzyme from porcine pancreas (Sigma Aldrich); PDB 1QGF printed for the docking model of PPE
Experiment: spectrophotometric, p-nitroaniline release at […] nm
Assay type: biochemical
Conditions: read-out: IC50 Values / EI (μg/mL) (converted)

T1 sequence (P00772 27-266): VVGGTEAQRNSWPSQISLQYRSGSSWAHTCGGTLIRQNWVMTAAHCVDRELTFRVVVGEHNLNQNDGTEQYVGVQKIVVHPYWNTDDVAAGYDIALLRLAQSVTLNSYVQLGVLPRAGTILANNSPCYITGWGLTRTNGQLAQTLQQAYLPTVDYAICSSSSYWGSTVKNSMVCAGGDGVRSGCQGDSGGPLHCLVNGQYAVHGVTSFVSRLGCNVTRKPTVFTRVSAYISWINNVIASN

## O=C(O[C@@H]1Cc2c(O)cc(O)cc2O[C@@H]1c1cc(O)c(O)c(O)c1)c1cc(O)c(O)c(O)c1 [epigallocatechin gallate]
  IC50: 759 µM

Source: publication PMC12473510, “Multidisciplinary Bioanalytical Approach to Assess the Anti-Aging Properties of Flower Petals—A Promising Sustainable Cosmetic Ingredient” (Plants, 2025)
